From US10603304B1, “Compositions and methods for treating anxiety” (priority 2015, dated 2020)

Assays:
lynx2KO mice [1] = assay: light dark box experiment (latency to enter dark enclosed environment); type: in vivo; details: lynx2KO mice under chronic stress with administration of mec, as opposed to lynx2KO mice without mec (FIG. 2A)
From the text: FIG. 2A is a graph of the time in seconds (latency) for wild type (WT) (black bars) or lynx2 knock out (KO) (white bars) mice to enter a dark enclosed environment under conditions of saline, chronic stress, or chronic stress with administration of mecamylamine (mec) as indicated, according to embodiments of the present invention.

lynx2KO mice [2] = assay: fear extinction experiment (fear associated with a noise after shock training); type: in vivo; details: lynx2KO mice with administration of mec compared to lynx2KO mice without mec (FIGS. 2B-2C)
Method: FIG. 2B is a graph of fear observed in wild type (black circles) and lynx2KO mice (white triangles) after fear training (an electric shock depicted in yellow) associated with a noise for 24 hours followed by the same noise without the shock to measure the mouse's capability to lose the fear, according to embodiments of the present invention.
FIG. 2C is a graph of fear observed in lynx2KO mice during the fear extinction experiment of FIG. 2B with a group of lynx2KO mice receiving mecamylamine (mec), according to embodiments of the present invention.

[3] = system: amygdala (EC) neurons of lynx2KO mice; assay: long term depression (LTD) of evoked fEPSPs in brain slices after theta pulse stimulations; type: cell-based; details: brain slices from lynx2KO mice in ACSF solution with 20 mM methyllycaconitine (MLA), theta pulse stimulations (FIG. 4D)
Method: FIG. 4D is a graph of stimulating electrode traces from long term depression (LTD) experiments using extracellular recordings for evoked field excitatory post-synaptic potentials (fEPSPs) in […] (EC) brain slices in ACSF solution with […] methyllycaconitine (MLA) from lynx2 knockout (KO) mice before (left of zero minutes) and after (right of zero minutes) theta pulse stimulations (TSP), according to embodiments of the present invention.
The animals were anesthetized by isoflurane in an anesthetic chamber to a tolerant state (ml/kg) and euthanized through decapitation. […]
Field excitatory postsynaptic potentials (fEPSPs) were evoked by 0.05 Hz test stimulus though a bipolar stimulating electrode placed on external Capsule (EC), and a glass pipette as recording electrode was filled with ACSF and placed in BLA. […] Access resistances were continuously monitored and neurons with more than 20% change of series resistance were excluded from data analysis.
The plasticity ratio was calculated from the average EPSP amplitude of the last 10 mins of baseline recording and the last 15 mins after high frequency or low stimulus, for LTP and LTD studies, respectively. […] For all experiments, treatment effects were analyzed with one-way ANOVA, followed by the appropriate post hoc tests. […]

Compound	latency to dark (lynx2KO mice [1])	ability to unlearn a fear associated with a noise (fear extinction) (lynx2KO mice [2])	rescue of induced long term depression (LTD) [3]
CNC1(C)C2CCC(C2)C1(C)C (stereo not drawn) [mecamylamine]	increased latency to dark	increased ability to unlearn a fear	
CCN1C[C@]2(COC(=O)c3ccccc3N3C(=O)C[C@H](C)C3=O)CC[C@H](OC)[C@@]34[C@@H]5C[C@H]6[C@H](OC)[C@@H]5[C@](O)(C[C@@H]6OC)[C@@](O)([C@@H](OC)[C@H]23)[C@@H]14 [methyllycaconitine]			able to rescue induced long term depression (LTD)
